Like-named read-outs stand apart in the source and are kept apart here.
How the values were obtained:
Assay in all cases: biochemical
Type in all cases: biochemical
panel of 391 kinases [1] = molecular target: panel of 391 kinases (Homo sapiens, UniProt O00506); details: STK25/YSK1, MK-28 1 µM, ATP 1 µM
panel of 391 kinases [2] = molecular target: panel of 391 kinases (Homo sapiens, UniProt O43781); details: DYRK3, MK-28 1 µM, ATP 1 µM
panel of 391 kinases [3] = molecular target: panel of 391 kinases (Homo sapiens, UniProt P07333); details: FMS, MK-28 1 µM, ATP 1 µM
panel of 391 kinases [4] = molecular target: panel of 391 kinases (Homo sapiens, UniProt P08922); details: ROS/ROS1, MK-28 1 µM, ATP 1 µM
panel of 391 kinases [5] = molecular target: panel of 391 kinases (Homo sapiens, UniProt P20794); details: MAK, MK-28 1 µM, ATP 1 µM
panel of 391 kinases [6] = molecular target: panel of 391 kinases (Homo sapiens, UniProt P24941); details: MK-28 1 µM, ATP 1 µM; for remaining activity at 1 µM: read-out: % Enzyme Activity (relative to DMSO controls)
panel of 391 kinases [7] = molecular target: panel of 391 kinases (Homo sapiens, UniProt P29322); details: EPHA8, MK-28 1 µM, ATP 1 µM
panel of 391 kinases [8] = molecular target: panel of 391 kinases (Homo sapiens, UniProt P36896); details: ALK4/ACVR1B, MK-28 1 µM, ATP 1 µM
panel of 391 kinases [9] = molecular target: panel of 391 kinases (Homo sapiens, UniProt P53355); details: DAPK1, MK-28 1 µM, ATP 1 µM
panel of 391 kinases [10] = molecular target: panel of 391 kinases (Homo sapiens, UniProt P54646); details: compound at 1 µM, single dose in duplicates, 1 µM ATP; for remaining activity at 1 µM: read-out: % Enzyme Activity (relative to DMSO controls)
panel of 391 kinases [11] = molecular target: panel of 391 kinases (Homo sapiens, UniProt Q04759); details: PKCtheta, MK-28 1 µM, ATP 1 µM
panel of 391 kinases [12] = molecular target: panel of 391 kinases (Homo sapiens, UniProt Q13873); details: BMPR2, MK-28 1 µM, ATP 1 µM
panel of 391 kinases [13] = molecular target: panel of 391 kinases (Homo sapiens, UniProt Q5TCY1); details: TTBK1, MK-28 1 µM, ATP 1 µM
panel of 391 kinases [14] = molecular target: panel of 391 kinases (Homo sapiens, UniProt Q8IW41); details: MAPKAPK5/PRAK, MK-28 1 µM, ATP 1 µM
panel of 391 kinases [15] = molecular target: panel of 391 kinases (Homo sapiens, UniProt Q8N5S9); details: CAMKK1, MK-28 1 µM, ATP 1 µM
panel of 391 kinases [16] = molecular target: panel of 391 kinases (Homo sapiens, UniProt Q8NEV4); details: MYO3A, MK-28 1 µM, ATP 1 µM
panel of 391 kinases [17] = molecular target: panel of 391 kinases (Homo sapiens, UniProt Q99986); details: VRK1, MK-28 1 µM, ATP 1 µM
panel of 391 kinases [18] = molecular target: panel of 391 kinases (Homo sapiens, UniProt Q9BYT3); details: STK33, MK-28 1 µM, ATP 1 µM
panel of 391 kinases [19] = molecular target: panel of 391 kinases (Homo sapiens, UniProt Q9H2X6); details: HIPK2, MK-28 1 µM, ATP 1 µM
panel of 391 kinases [20] = molecular target: panel of 391 kinases (Homo sapiens, UniProt Q9H422); details: HIPK3, MK-28 1 µM, ATP 1 µM
panel of 391 kinases [21] = molecular target: panel of 391 kinases (Homo sapiens, UniProt Q9HC98); details: NEK6, MK-28 1 µM, ATP 1 µM
panel of 391 kinases [22] = molecular target: panel of 391 kinases (Homo sapiens, UniProt Q9NYL2); details: ZAK/MLTK, MK-28 1 µM, ATP 1 µM
panel of 391 kinases [23] = molecular target: panel of 391 kinases (Homo sapiens, UniProt Q9P286); details: PAK5, MK-28 1 µM, ATP 1 µM
panel of 391 kinases [24] = molecular target: panel of 391 kinases (Homo sapiens, UniProt Q9Y243); details: AKT3, MK-28 1 µM, ATP 1 µM
[25] = read-out: % Enzyme Activity (relative to DMSO controls)

In the case of `CN(/N=C\c1ccc(O)c(O)c1)c1nc(-c2ccccc2)cc(-c2ccccc2)n1` [MK-28], the “% Enzyme Activity (relative to DMSO controls)” value (panel of 391 kinases [1]) is reported as 93.29%, the remaining activity at 1 µM (panel of 391 kinases [1]; [25]) is reported as 95.7% and the “% Enzyme Activity (relative to DMSO controls)” value (panel of 391 kinases [2]) is reported as 96.41%. The remaining activity at 1 µM (panel of 391 kinases [2]; [25]) was 97.5%, the “% Enzyme Activity (relative to DMSO controls)” value (panel of 391 kinases [3]) was 101.26% and the remaining activity at 1 µM (panel of 391 kinases [3]; [25]) was 102%. The “% Enzyme Activity (relative to DMSO controls)” value (panel of 391 kinases [4]) was 99.57%, the remaining activity at 1 µM (panel of 391 kinases [4]; [25]) was 100% and the “% Enzyme Activity (relative to DMSO controls)” value (panel of 391 kinases [5]) was 94.70%. The remaining activity at 1 µM (panel of 391 kinases [5]; [25]) was 97.8%, the “% Enzyme Activity (relative to DMSO controls)” value (panel of 391 kinases [6]; CDK2/Cyclin A1) was 112.90% and the remaining activity at 1 µM (panel of 391 kinases [6]; CDK2/Cyclin A1) was 118%. The “% Enzyme Activity (relative to DMSO controls)” value (panel of 391 kinases [6]; CDK2/cyclin A) was 102.50%, the remaining activity at 1 µM (panel of 391 kinases [6]; CDK2/cyclin A) was 104% and the “% Enzyme Activity (relative to DMSO controls)” value (panel of 391 kinases [6]; CDK2/cyclin E2) was 99.65%. For the same compound, the remaining activity at 1 µM (panel of 391 kinases [6]; CDK2/cyclin E2) was 100%, the “% Enzyme Activity (relative to DMSO controls)” value (panel of 391 kinases [6]; CDK2/cyclin E) was 95.41% and the remaining activity at 1 µM (panel of 391 kinases [6]; CDK2/cyclin E) was 97%. The “% Enzyme Activity (relative to DMSO controls)” value (panel of 391 kinases [6]; CDK2/cyclin O) was 124.92%, the remaining activity at 1 µM (panel of 391 kinases [6]; CDK2/cyclin O) was 126% and the “% Enzyme Activity (relative to DMSO controls)” value (panel of 391 kinases [7]) was 98.42%. For the same compound, the remaining activity at 1 µM (panel of 391 kinases [7]; [25]) was 98.7%, the “% Enzyme Activity (relative to DMSO controls)” value (panel of 391 kinases [8]) was 89.88% and the remaining activity at 1 µM (panel of 391 kinases [8]; [25]) was 92.3%. The “% Enzyme Activity (relative to DMSO controls)” value (panel of 391 kinases [9]) was 129.26%, the remaining activity at 1 µM (panel of 391 kinases [9]; [25]) was 135% and the “% Enzyme Activity (relative to DMSO controls)” value (panel of 391 kinases [10]; kinase AMPK(A2/B1/G1)) was 91.41%. The remaining activity at 1 µM (panel of 391 kinases [10]; kinase AMPK(A2/B1/G1)) was 93%, the “% Enzyme Activity (relative to DMSO controls)” value (panel of 391 kinases [10]; kinase AMPK(A2/B2/G1)) was 106.33% and the remaining activity at 1 µM (panel of 391 kinases [10]; kinase AMPK(A2/B2/G1)) was 108%. For the same compound, the “% Enzyme Activity (relative to DMSO controls)” value (panel of 391 kinases [10]; kinase AMPK(A2/B2/G2)) was 103.36%, the remaining activity at 1 µM (panel of 391 kinases [10]; kinase AMPK(A2/B2/G2)) was 104% and the “% Enzyme Activity (relative to DMSO controls)” value (panel of 391 kinases [10]; kinase AMPK(A2/B2/G3)) was 96.60%. The remaining activity at 1 µM (panel of 391 kinases [10]; kinase AMPK(A2/B2/G3)) was 98.9%, the “% Enzyme Activity (relative to DMSO controls)” value (panel of 391 kinases [11]) was 123.95% and the remaining activity at 1 µM (panel of 391 kinases [11]; [25]) was 128%. The “% Enzyme Activity (relative to DMSO controls)” value (panel of 391 kinases [12]) was 101.00%, the remaining activity at 1 µM (panel of 391 kinases [12]; [25]) was 105% and the “% Enzyme Activity (relative to DMSO controls)” value (panel of 391 kinases [13]) was 93.65%. The remaining activity at 1 µM (panel of 391 kinases [13]; [25]) was 99%, the “% Enzyme Activity (relative to DMSO controls)” value (panel of 391 kinases [14]) was 77.52% and the remaining activity at 1 µM (panel of 391 kinases [14]; [25]) was 77.8%. The “% Enzyme Activity (relative to DMSO controls)” value (panel of 391 kinases [15]) was 101.88%, the remaining activity at 1 µM (panel of 391 kinases [15]; [25]) was 102% and the “% Enzyme Activity (relative to DMSO controls)” value (panel of 391 kinases [16]) was 104.11%. For the same compound, the remaining activity at 1 µM (panel of 391 kinases [16]; [25]) was 104%, the “% Enzyme Activity (relative to DMSO controls)” value (panel of 391 kinases [17]) was 104.86% and the remaining activity at 1 µM (panel of 391 kinases [17]; [25]) was 106%. The “% Enzyme Activity (relative to DMSO controls)” value (panel of 391 kinases [18]) was 91.70%, the remaining activity at 1 µM (panel of 391 kinases [18]; [25]) was 95.4% and the “% Enzyme Activity (relative to DMSO controls)” value (panel of 391 kinases [19]) was 122.10%. The remaining activity at 1 µM (panel of 391 kinases [19]; [25]) was 124%, the “% Enzyme Activity (relative to DMSO controls)” value (panel of 391 kinases [20]) was 104.43% and the remaining activity at 1 µM (panel of 391 kinases [20]; [25]) was 105%. The “% Enzyme Activity (relative to DMSO controls)” value (panel of 391 kinases [21]) was 99.56%, the remaining activity at 1 µM (panel of 391 kinases [21]; [25]) was 100% and the “% Enzyme Activity (relative to DMSO controls)” value (panel of 391 kinases [22]) was 104.97%. For the same compound, the remaining activity at 1 µM (panel of 391 kinases [22]; [25]) was 105%, the “% Enzyme Activity (relative to DMSO controls)” value (panel of 391 kinases [23]) was 72.57% and the remaining activity at 1 µM (panel of 391 kinases [23]; [25]) was 77.2%. For the same compound, the “% Enzyme Activity (relative to DMSO controls)” value (panel of 391 kinases [24]) was 81.92% and the remaining activity at 1 µM (panel of 391 kinases [24]; [25]) was 82.2%.

Reference: publication PMC7181660, “A novel specific PERK activator reduces toxicity and extends survival in Huntington's disease models” (Scientific Reports, 2020)
